Source: EP3964511A1, “BIOORTHOGONAL CHOLESTEROL PROBE AND USES THEREOF” (Universidad del País Vasco/Euskal Herriko Unibertsitatea, priority 2020, dated 2022)

Legend:
HeLa cells = assay: Competition assay of cellular uptake against natural chol; type: cell-based, Human; details: probe fixed at 5 µM, chol 0-1 mM, 1 h co-incubation; result stated at 500 µM chol
Procedure: A competition assay was designed to test chol-N3 and fluorescently pre-labeled chol-N3 uptake by cells. HeLa cells were seeded onto coverslips in DMEM supplemented with 10% FBS, and co-incubated with a fixed concentration of chol-N3 (5 µM) or with chol-N3 (5 µM) labeled with 10 µM AF 488-DBCO and an increasing concentration of natural chol (ranging from 0 to 1 mM) added externally to the cells. After 1h co-incubation of cells with the mixture, cells were stained in vivo with 25 µM AF 488-DBCO for 60 min, counterstained with DAPI, fixed, and imaged using a ZEISS apotome. Alternaltively, HeLa cells were treated with 5 µM Bodipy-chol in DMEM supplemented with 10% FBS and co-incubated with increasing concentration of natural chol (0-1mM) for 1h. Cells were fixed, and counterstained with DAPI.
Human cervix adenocarcinoma HeLa cells and human bone marrow neuroblast SH-SY5Y cells were obtained from ATCC. HeLa cells were maintained in DMEM (Dulbecco's modified Eagle's medium) supplemented with 10% FBS, 2 mM Glutamax, 100 units/ml penicillin, and 100 µg/ml streptomycin (Life Technologies) at 37 °C with 5% CO2. SH-SY5Y cells were maintained in DMEM/F12 (F12 and Dulbecco's modified Eagle's medium) supplemented with 10% FBS and 1% penicillin and streptomycin. (Life Technologies) at 37°C with 5% CO2.

[1] = In vitro laurdan generalized polarization (GP) in LUVs; type: physicochemical; details: POPC LUVs with 10% sterol (labeled adduct 90%:8%:2%), compared with chol
Procedure: Large unilamellar vesicles (LUV) composed of POPC:chol (90%:10%), POPC:chol-N3 (90%:10%) or POPC/chol-N3/chol-N3-AF 647-DBCO (90%:8%:2%) were prepared following the extrusion method described by Cebecauer M. et al. (Membrane Lipid Nanodomains. Chem Rev, 2018). Laurdan was added in the organic phase before solvent evaporation. Laurdan labeled liposomes at a concentration of 30 µM were kept under continuous stirring, and the determination of GP profiles at different temperatures was performed. All fluorescence measurements were made using an SLM Aminco series 2 (Spectronic Instruments, Rochester, NY) spectrofluorimeter as previously described (Sheng R. et al. Nat Commun 3, 1249, 2012). To quantify changes in the Laurdan emission spectrum, generalized polarization (GP) values were calculated as follow: GP = (IB-IR)/(IB+IR), where IB (at 440 nm) and IR (at 490 nm) correspond to the intensities at the blue and red edges of the emission maxima, respectively (Bernardino de la Serna J et al., J Biol Chem 279, 40715-40722, 2004 and Sezgin E et al., Nat Rev Mol Cell Biol 18, 361-374, 2017).

CC(CCCN=[N+]=[N-])C1CCC2C3CC=C4CC(O)CCC4(C)C3CCC12C (centres unmarked) [chol-N3, 17-(5-azidopentan-2-yl)-10,13-dimethyl-2,3,4,7,8,9,10,11,12,13,14,15,16,17-tetradecahydro-1H-cyclopenta[a]phenanthren-3-ol]
uptake in the presence of increasing extracellular chol (HeLa cells): virtually abolished
membrane order (laurdan generalized polarization, GP) versus temperature [1]: same membrane order behavior irrespective of the chol analog used
